Test results as given in ChEMBL document CHEMBL5034001 (J Med Chem, 2021).
pIC50: −log10 of the molar value. Activity calls are given as the source filed them. The rule behind the calls is not given here.

Tests used:
[1] = target: Tyrosine-protein kinase Fer (Homo sapiens) (UniProt P16591); experiment: Binding affinity to wild-type human partial length FER (S542 to T822 residues) expressed in bacterial expression system assessed as residual binding level at 100 nM by Kinomescan method relative to control
[2] = system: Receptor-type tyrosine-protein kinase FLT3 (Homo sapiens), P36888 [D835V]; experiment: Binding affinity to human partial length FLT3 D835V mutant (V592 to Y969 residues) expressed in bacterial expression system assessed as residual binding level at 100 nM by Kinomescan method relative to control
[3] = system: Receptor-type tyrosine-protein kinase FLT3 (Homo sapiens), P36888 [UNDEFINED MUTATION]; experiment: Binding affinity to human partial length FLT3 ITD/F691L double mutant expressed in bacterial expression system assessed as residual binding level at 100 nM by Kinomescan method relative to control
Calu-1 [4] = experiment: Down regulation of cyclin D1 protein expression in human Calu-1 cells at 1 to 500 nM after 48 hrs by Western blot analysis; type: functional, cell-based; details: dose 1-500 nM
[5] = target: ALK tyrosine kinase receptor (Homo sapiens, UniProt Q9UM73, G1202R); experiment: Binding affinity to ALK G1202R mutant (unknown origin)
[6] = Metabolic stability in human liver microsomes assessed as half life preincubated for 10 mins followed by NADPH regenerating system addition and measured after 10 mins by LC-MS/MS analysis; type: ADME, Microsome
[7] = target: T1, ALK tyrosine kinase receptor (Homo sapiens, UniProt Q9UM73); experiment: Inhibition of ALK downstream signalling in human SR cells assessed as reduction in ratio of pALK at 0.1 to 50 nM by Western blot analysis; type: cell-based; details: dose 0.1-50 nM
T1 sequence (Q9UM73 19-1620 limits assumed): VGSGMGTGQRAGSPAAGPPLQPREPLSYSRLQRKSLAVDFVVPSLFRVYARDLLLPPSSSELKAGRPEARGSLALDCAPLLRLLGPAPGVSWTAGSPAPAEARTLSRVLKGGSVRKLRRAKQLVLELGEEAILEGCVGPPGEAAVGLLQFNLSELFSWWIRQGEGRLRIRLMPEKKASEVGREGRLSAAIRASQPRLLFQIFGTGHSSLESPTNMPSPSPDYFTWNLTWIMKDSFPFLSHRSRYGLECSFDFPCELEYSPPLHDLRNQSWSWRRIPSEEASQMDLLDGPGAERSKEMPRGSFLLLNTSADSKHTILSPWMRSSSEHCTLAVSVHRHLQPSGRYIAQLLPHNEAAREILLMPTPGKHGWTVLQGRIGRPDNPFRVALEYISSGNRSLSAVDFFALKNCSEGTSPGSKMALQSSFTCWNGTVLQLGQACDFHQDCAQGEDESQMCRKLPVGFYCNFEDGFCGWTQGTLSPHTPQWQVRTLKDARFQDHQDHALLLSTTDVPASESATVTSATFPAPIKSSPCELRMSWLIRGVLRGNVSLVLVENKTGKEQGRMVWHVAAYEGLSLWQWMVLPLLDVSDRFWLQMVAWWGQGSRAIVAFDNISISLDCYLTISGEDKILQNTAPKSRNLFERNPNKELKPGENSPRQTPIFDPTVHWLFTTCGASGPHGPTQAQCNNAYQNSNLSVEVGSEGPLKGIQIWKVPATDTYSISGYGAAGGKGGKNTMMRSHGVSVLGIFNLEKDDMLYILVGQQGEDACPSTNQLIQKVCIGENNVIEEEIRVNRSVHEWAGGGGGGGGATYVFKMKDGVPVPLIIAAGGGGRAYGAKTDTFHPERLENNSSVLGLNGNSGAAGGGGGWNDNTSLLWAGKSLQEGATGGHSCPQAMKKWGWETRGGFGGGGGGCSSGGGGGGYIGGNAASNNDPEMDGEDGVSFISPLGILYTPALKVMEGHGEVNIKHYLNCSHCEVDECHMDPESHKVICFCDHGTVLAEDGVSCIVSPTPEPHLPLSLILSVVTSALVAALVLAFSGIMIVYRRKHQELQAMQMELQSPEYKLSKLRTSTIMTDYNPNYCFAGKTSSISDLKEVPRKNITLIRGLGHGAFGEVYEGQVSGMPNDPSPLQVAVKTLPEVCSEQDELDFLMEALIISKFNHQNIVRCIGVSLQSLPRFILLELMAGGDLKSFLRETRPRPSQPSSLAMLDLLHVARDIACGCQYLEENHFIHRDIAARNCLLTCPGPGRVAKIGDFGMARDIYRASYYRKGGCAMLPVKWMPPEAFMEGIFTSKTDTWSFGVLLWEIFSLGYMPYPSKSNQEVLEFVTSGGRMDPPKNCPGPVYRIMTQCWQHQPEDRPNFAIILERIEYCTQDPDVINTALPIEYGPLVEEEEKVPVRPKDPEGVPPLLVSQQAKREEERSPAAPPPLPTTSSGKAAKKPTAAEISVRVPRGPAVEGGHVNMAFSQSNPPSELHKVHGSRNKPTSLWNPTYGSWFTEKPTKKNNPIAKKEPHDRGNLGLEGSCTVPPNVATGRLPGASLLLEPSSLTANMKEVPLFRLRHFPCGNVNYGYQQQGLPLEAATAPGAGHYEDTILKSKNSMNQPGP

[8] = target: Focal adhesion kinase 1 (Homo sapiens) (UniProt Q05397); experiment: Induction of FAK degradation in human Calu-1 cells at 1 nM after 16 hrs by Western blot analysis; type: cell-based
[9] = target: T1, ALK tyrosine kinase receptor; experiment: Induction of ALK degradation in human SR cells at 100 nM pretreated with proteosome inhibitor MG132 for 4 hrs followed by compound addition and measured after 16 hrs by Western blot analysis; type: cell-based
MDA-MB-231 [10] = experiment: Down regulation of cyclin D1 protein expression in human MDA-MB-231 cells at 1 to 500 nM after 48 hrs by Western blot analysis; type: functional, cell-based; details: dose 1-500 nM
[11] = system: Receptor-type tyrosine-protein kinase FLT3 (Homo sapiens), P36888 [N841I]; experiment: Binding affinity to human partial length FLT3 N841I mutant (V592 to Y969 residues) expressed in bacterial expression system assessed as residual binding level at 100 nM by Kinomescan method relative to control
[12] = target: Activated CDC42 kinase 1 (Homo sapiens) (UniProt Q07912); experiment: Binding affinity to wild-type human partial length TNK2 (S159 to D474 residues) expressed in bacterial expression system assessed as residual binding level at 100 nM by Kinomescan method relative to control
[13] = system: Mast/stem cell growth factor receptor Kit (Homo sapiens), P10721 [D816V]; experiment: Binding affinity to human partial length KIT D816V mutant (I571 to D952 residues) expressed in bacterial expression system assessed as residual binding level at 100 nM by Kinomescan method relative to control
Mast/stem cell growth factor receptor Kit (Homo sapiens), P10721 [D816V], sequence (P10721 whole entry D816V, the tested form may be a part): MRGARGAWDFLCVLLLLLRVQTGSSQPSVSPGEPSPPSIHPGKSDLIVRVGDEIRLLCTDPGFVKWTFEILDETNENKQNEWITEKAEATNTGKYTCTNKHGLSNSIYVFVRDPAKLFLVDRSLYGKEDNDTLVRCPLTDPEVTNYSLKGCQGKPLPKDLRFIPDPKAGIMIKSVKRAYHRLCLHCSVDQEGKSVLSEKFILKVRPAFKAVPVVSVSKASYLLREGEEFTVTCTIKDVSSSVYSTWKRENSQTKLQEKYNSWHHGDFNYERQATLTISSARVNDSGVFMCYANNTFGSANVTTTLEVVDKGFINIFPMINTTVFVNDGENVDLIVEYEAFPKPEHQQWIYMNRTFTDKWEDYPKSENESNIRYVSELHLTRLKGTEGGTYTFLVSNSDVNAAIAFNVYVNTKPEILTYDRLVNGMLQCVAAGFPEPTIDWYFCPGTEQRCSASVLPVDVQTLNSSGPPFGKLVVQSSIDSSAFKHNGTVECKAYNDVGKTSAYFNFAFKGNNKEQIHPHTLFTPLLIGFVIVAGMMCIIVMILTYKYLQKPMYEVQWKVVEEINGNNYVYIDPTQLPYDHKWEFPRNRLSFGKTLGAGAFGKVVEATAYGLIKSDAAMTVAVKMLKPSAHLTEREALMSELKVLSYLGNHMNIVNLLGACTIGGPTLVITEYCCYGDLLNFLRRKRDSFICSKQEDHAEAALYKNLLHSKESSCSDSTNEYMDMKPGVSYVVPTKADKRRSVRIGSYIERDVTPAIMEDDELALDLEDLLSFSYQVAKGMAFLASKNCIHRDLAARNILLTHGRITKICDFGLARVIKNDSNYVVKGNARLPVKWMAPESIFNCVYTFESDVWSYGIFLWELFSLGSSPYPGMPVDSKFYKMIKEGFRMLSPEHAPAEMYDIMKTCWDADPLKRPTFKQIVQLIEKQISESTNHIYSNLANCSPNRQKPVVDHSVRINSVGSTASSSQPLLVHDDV

[14] = Metabolic stability in human liver microsomes assessed as intrinsic clearance preincubated for 10 mins followed by NADPH regenerating system addition and measured after 10 mins by LC-MS/MS analysis; type: ADME, Microsome; details: time 20 min, read-out: CLH
SR [15] = experiment: Antiproliferative activity against human SR cells assessed as inhibition of cell growth at 10 nM preincubated for 5 days followed by compound washout and measured on day 7 and 9 by CCK8 assay; type: functional, cell-based; details: time 5.0 day
[16] = target: NPM/ALK (Nucleophosmin/ALK tyrosine kinase receptor) (Homo sapiens) (UniProt Q9UM73+P06748); experiment: Induction of NPM-ALK degradation in human SR cells at 0.1 to 50 nM by Western blot analysis; type: cell-based; details: dose 0.1-50 nM
SR [17] = experiment: Induction of G1 cell cycle arrest in human SR cells at 100 nM after 24 to 48 hrs; type: functional, cell-based; details: time 24-48 hrs
[18] = target: T1, ALK tyrosine kinase receptor; experiment: Induction of ALK degradation in human SR cells at 100 nM after 8 to 24 hrs by Western blot analysis; type: cell-based; details: time 8-24 hrs
[19] = target: Protein-tyrosine kinase 2-beta (Homo sapiens) (UniProt Q14289); experiment: Induction of PYK2 degradation in human MDA-MB-231 cells at 10 nM treated for 16 hrs followed by compound washout and measured after 48 hrs by Western blot analysis; type: cell-based
Protein-tyrosine kinase 2-beta (Homo sapiens), sequence (Q14289 whole entry, looked up, the tested form may be a part): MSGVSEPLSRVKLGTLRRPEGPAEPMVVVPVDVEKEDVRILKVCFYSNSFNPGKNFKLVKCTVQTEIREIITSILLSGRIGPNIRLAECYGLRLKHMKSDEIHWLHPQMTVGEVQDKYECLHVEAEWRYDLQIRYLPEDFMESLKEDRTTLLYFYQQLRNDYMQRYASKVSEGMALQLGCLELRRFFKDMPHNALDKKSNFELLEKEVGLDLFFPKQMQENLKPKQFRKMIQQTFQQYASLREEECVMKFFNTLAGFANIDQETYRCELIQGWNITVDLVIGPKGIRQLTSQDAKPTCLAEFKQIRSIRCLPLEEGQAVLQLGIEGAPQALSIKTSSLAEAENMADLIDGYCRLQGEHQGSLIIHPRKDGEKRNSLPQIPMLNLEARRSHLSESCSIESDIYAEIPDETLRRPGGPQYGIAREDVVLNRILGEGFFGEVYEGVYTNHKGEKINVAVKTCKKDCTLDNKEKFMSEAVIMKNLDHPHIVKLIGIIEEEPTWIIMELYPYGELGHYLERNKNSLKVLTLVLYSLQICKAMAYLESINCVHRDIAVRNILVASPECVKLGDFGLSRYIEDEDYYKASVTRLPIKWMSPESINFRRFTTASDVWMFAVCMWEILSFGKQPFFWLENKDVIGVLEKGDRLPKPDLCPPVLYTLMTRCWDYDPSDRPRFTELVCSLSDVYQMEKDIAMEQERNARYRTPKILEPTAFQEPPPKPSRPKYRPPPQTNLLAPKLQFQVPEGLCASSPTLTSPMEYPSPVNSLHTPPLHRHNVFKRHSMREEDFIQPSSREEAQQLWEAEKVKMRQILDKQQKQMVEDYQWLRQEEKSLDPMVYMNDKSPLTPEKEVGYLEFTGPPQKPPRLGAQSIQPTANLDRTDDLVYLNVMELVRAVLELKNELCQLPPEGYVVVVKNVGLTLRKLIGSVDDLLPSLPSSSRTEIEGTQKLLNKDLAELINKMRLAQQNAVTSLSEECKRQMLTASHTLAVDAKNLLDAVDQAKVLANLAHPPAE

[20] = target: Serine/threonine-protein kinase Chk2 (Homo sapiens) (UniProt O96017); experiment: Binding affinity to wild-type human partial length CHEK2 (S253 to E574 residues) expressed in bacterial expression system assessed as residual binding level at 100 nM by Kinomescan method relative to control
Serine/threonine-protein kinase Chk2 (Homo sapiens), sequence (O96017 whole entry, the tested form may be a part): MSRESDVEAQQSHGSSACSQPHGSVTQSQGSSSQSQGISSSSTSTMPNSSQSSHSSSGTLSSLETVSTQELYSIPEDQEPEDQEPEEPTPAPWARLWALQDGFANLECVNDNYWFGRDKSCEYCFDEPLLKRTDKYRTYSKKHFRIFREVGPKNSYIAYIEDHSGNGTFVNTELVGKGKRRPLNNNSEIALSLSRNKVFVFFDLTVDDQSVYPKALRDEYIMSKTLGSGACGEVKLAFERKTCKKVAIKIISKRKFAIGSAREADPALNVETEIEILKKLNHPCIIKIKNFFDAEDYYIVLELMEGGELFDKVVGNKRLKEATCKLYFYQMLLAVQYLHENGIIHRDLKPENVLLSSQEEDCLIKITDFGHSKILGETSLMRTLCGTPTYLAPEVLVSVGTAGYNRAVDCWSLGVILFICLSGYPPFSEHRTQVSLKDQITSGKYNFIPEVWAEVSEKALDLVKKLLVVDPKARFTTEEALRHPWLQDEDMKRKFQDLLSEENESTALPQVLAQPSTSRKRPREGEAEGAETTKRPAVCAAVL

[21] = system: Epidermal growth factor receptor (Homo sapiens), P00533 [L858R,T790M]; experiment: Induction of EGFR L858R/T790M mutant degradation in human […] at 100 nM by Western blot analysis; type: cell-based
[22] = target: Serine/threonine-protein kinase RIO1 (Homo sapiens) (UniProt Q9BRS2); experiment: Binding affinity to wild-type human full length RIOK1 (M1 to K568 residues) expressed in bacterial expression system assessed as residual binding level at 100 nM by Kinomescan method relative to control
Serine/threonine-protein kinase RIO1 (Homo sapiens), sequence (Q9BRS2 whole entry, the tested form may be a part): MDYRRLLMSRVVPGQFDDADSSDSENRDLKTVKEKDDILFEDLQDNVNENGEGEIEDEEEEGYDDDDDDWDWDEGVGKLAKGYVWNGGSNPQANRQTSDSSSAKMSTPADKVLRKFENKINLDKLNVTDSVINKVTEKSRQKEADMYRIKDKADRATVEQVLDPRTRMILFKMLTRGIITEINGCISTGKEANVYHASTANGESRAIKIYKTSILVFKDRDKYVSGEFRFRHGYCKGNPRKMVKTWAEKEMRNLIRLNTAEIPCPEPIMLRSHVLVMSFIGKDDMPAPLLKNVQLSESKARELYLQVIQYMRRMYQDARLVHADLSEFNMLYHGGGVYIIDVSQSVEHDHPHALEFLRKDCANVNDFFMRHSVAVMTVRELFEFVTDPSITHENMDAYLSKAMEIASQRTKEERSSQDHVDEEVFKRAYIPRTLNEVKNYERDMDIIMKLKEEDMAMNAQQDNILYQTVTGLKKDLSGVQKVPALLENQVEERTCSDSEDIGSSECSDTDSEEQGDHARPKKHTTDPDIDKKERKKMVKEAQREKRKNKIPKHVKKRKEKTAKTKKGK

[23] = system: Receptor-type tyrosine-protein kinase FLT3 (Homo sapiens), P36888 [K663Q]; experiment: Binding affinity to human partial length FLT3 K663Q mutant (V592 to Y969 residues) expressed in bacterial expression system assessed as residual binding level at 100 nM by Kinomescan method relative to control
[24] = target: Signal transducer and activator of transcription 3 (Homo sapiens) (UniProt P40763); experiment: Inhibition of STAT3 downstream signalling in human SR cells assessed as reduction in pSTAT3 level at 10 nM by Western blot analysis; type: cell-based
EML4-ALK (Homo sapiens) = EML4-ALK (Homo sapiens) (UniProt Q9UM73+Q9HC35); experiment: Induction of EML4-ALK degradation in human […] at 0.1 to 50 nM by Western blot analysis; type: cell-based; details: dose 0.1-50 nM
[25] = system: Receptor-type tyrosine-protein kinase FLT3 (Homo sapiens), P36888 [UNDEFINED MUTATION]; experiment: Binding affinity to human partial length FLT3 ITD/D835V double mutant expressed in bacterial expression system assessed as residual binding level at 100 nM by Kinomescan method relative to control
MDA-MB-231 [26] = experiment: Down regulation of C-myc protein expression in human MDA-MB-231 cells at 1 to 500 nM after 48 hrs by Western blot analysis; type: functional, cell-based; details: dose 1-500 nM
Calu-1 [27] = experiment: Induction of apoptosis in human Calu-1 cells at 100 nM after 72 hrs; type: functional, cell-based
[28] = target: Protein-tyrosine kinase 2-beta (Homo sapiens) (UniProt Q14289); experiment: Induction of PYK2 degradation in human SR cells at 1 nM after 16 hrs by Western blot analysis; type: cell-based
[29] = system: Epidermal growth factor receptor (Homo sapiens), P00533 [T790M]; experiment: Binding affinity to human partial length EGFR T790M mutant (R669 to G1022 residues) expressed in mammalian expression system assessed as residual binding level at 100 nM by Kinomescan method relative to control
MDA-MB-231 [30] = experiment: Inhibition of cell migration in human MDA-MB-231 cells assessed as wound confluence ratio at 10 nM after 48 hrs by wound healing assay; type: functional

Compound: COc1cc(N2CCC(N3CCN(C(=O)CNc4cccc5c4C(=O)N(C4CCC(=O)NC4=O)C5=O)CC3)CC2)ccc1Nc1ncc(Cl)c(Nc2ccccc2P(C)(C)=O)n1 (stereo unspecified)
- Activity [1]: 4.1%
- Activity [2]: 0%
- Activity [3]: 0%
- Activity (Calu-1 [4]): Active
- pIC50 [5]: 8.18
- half-life [6]: 4.65 h
- Ratio [7]: 0.18
- Activity [8]: Active
- Activity [9]: inactive
- Activity (MDA-MB-231 [10]): Active
- Activity [11]: 4%
- Activity [12]: 2%
- Activity [13]: 8.1%
- CLint scaled [14]: 22.6 mL/min/kg
- Activity (SR [15]): Active
- Activity [16]: Active
- Activity (SR [17]): Active
- Activity [18]: Active
- Activity [19]: inactive
- Activity [20]: 0%
- Activity [21]: Active
- Activity [22]: 1.6%
- Activity [23]: 4.3%
- inhibition [24]: Active
- Activity (EML4-ALK (Homo sapiens)): Active
- Activity [25]: 1%
- Activity (MDA-MB-231 [26]): Active
- Activity (Calu-1 [27]): inactive
- Activity [28]: Active
- Activity [29]: 5.7%
- inhibition at 0.01 µM (MDA-MB-231 [30]): 48%
